Data: the supplement of paper PMC6045584
± gives the standard deviation of the averaged measurements.

Compound: COc1cccc2c1C(=O)c1c(O)c3c(c(O)c1C2=O)C[C@@](O)(C(=O)CO)C[C@@H]3O[C@H]1C[C@H](N)[C@H](O)[C@H](C)O1 [DOXORUBICIN]
Assay: surviving fraction relative to DMSO-only wells; higher = less growth inhibition
Settings: 50 nM; exposure time: 5 days
Summary of the method: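 Tumour cell lines in log phase were plated in 384-well plates at 250–500 cells per well, then, after 24 hours, exposed continuously for five days to inhibitors at 0.5, 1, 5, 10, 50, 100, 500 and 1000 nM. Viability came from CellTiter-Glo luminescence, and surviving fraction is that signal normalised to the median of DMSO-only wells. Plates were read after 10 minutes at room temperature, and each line, screened three times, was kept only when replicate Pearson r was >0.7 and median Z' was >0.3.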

Test System | surviving fraction
SCC36 HEADNECK | 0.426 ± 0.024
OS25HAL BONE | 0.258 ± 0.033
HCC1806 BREAST | 0.102 ± 0.013
HU09 BONE | 0.0467 ± 0.0046
SG43 HEADNECK | 0.453 ± 0.056
U2OS BONE | 0.606 ± 0.037
HOSMNG BONE | 0.549 ± 0.051
CASKI CERVIX | 0.035 ± 0.005
SUM44 BREAST | 0.859 ± 0.06
MDAMB231 BREAST | 0.53 ± 0.014
CAL51 BREAST | 0.112 ± 0.011
MDAMB436 BREAST | 0.484 ± 0.036
HSSYII SYNOVIAL | 0.0632 ± 0.0042
RDES SOFT TISSUE | 0.16 ± 0.021
MDAMB157 BREAST | 0.375 ± 0.042
CHLA90 AUTONOMIC GANGLIA | 0.414 ± 0.038
CADOES1 SOFT TISSUE | 0.573 ± 0.052
SG31 HEADNECK | 0.556 ± 0.03
SCC47 HEADNECK | 0.573 ± 0.027
S68 BREAST | 0.205 ± 0.013
SNU475 LIVER | 0.484 ± 0.034

Test System | surviving fraction
22RV1 PROSTATE | 0.222 ± 0.03
SG32 HEADNECK | 0.414 ± 0.04
SCC003 HEADNECK | 0.396 ± 0.046
JURKAT HAEMATOPOIETIC AND LYMPHOID TISSUE | 0.0323 ± 0.00058
HT1080 SOFT TISSUE | 0.265 ± 0.0078
CAL120 BREAST | 0.401 ± 0.038
MCF7 BREAST | 0.589 ± 0.032
MFM223 BREAST | 0.669 ± 0.082
LNCAP PROSTATE | 0.124 ± 0.013
PCI30 HEADNECK | 0.551 ± 0.022
OSHN BONE | 0.299 ± 0.068
SG28 HEADNECK | 0.851 ± 0.13
HOS BONE | 0.087 ± 0.0053
HUO3N1 BONE | 0.47 ± 0.016
BT20 BREAST | 0.187 ± 0.019
SJSA1 BONE | 0.564 ± 0.014
JIMT1 BREAST | 0.56 ± 0.055
HCC78 LUNG | 0.0747 ± 0.013
NY BONE | 0.294 ± 0.015
NOS1 BONE | 0.752 ± 0.11

Same assay, conditions: 100 nM; exposure time: 5 days

Test System | surviving fraction
SCC36 HEADNECK | 0.5 ± 0.069
OS25HAL BONE | 0.151 ± 0.01
HCC1806 BREAST | 0.0793 ± 0.005
HU09 BONE | 0.0277 ± 0.005
SG43 HEADNECK | 0.322 ± 0.067
U2OS BONE | 0.376 ± 0.013
HOSMNG BONE | 0.506 ± 0.025
CASKI CERVIX | 0.143 ± 0.032
SUM44 BREAST | 0.811 ± 0.051
MDAMB231 BREAST | 0.474 ± 0.011
CAL51 BREAST | 0.0608 ± 0.0036
MDAMB436 BREAST | 0.423 ± 0.049
HSSYII SYNOVIAL | 0.0312 ± 0.002
RDES SOFT TISSUE | 0.0457 ± 0.004
MDAMB157 BREAST | 0.214 ± 0.014
CHLA90 AUTONOMIC GANGLIA | 0.187 ± 0.026
CADOES1 SOFT TISSUE | 0.323 ± 0.035
SG31 HEADNECK | 0.495 ± 0.037
SCC47 HEADNECK | 0.597 ± 0.039
S68 BREAST | 0.19 ± 0.015
SNU475 LIVER | 0.392 ± 0.015

Test System | surviving fraction
22RV1 PROSTATE | 0.119 ± 0.026
SG32 HEADNECK | 0.194 ± 0.019
SCC003 HEADNECK | 0.431 ± 0.065
JURKAT HAEMATOPOIETIC AND LYMPHOID TISSUE | 0.0293 ± 0.00058
HT1080 SOFT TISSUE | 0.222 ± 0.018
CAL120 BREAST | 0.285 ± 0.019
MCF7 BREAST | 0.469 ± 0.0095
MFM223 BREAST | 0.221 ± 0.013
LNCAP PROSTATE | 0.0727 ± 0.01
PCI30 HEADNECK | 0.587 ± 0.024
OSHN BONE | 0.286 ± 0.062
SG28 HEADNECK | 0.609 ± 0.014
HOS BONE | 0.043 ± 0.007
HUO3N1 BONE | 0.311 ± 0.025
BT20 BREAST | 0.191 ± 0.025
SJSA1 BONE | 0.284 ± 0.013
JIMT1 BREAST | 0.48 ± 0.017
HCC78 LUNG | 0.0363 ± 0.0042
NY BONE | 0.201 ± 0.0044
NOS1 BONE | 0.455 ± 0.036

Same assay, conditions: 500 nM; exposure time: 5 days

Test System | surviving fraction
SCC36 HEADNECK | 0.035 ± 0.0027
OS25HAL BONE | 0.0337 ± 0.0047
HCC1806 BREAST | 0.0243 ± 0.0011
HU09 BONE | 0.0227 ± 0.0023
SG43 HEADNECK | 0.0633 ± 0.027
U2OS BONE | 0.04 ± 0.0017
HOSMNG BONE | 0.165 ± 0.056
CASKI CERVIX | 0.0187 ± 0.0021
SUM44 BREAST | 0.14 ± 0.021
MDAMB231 BREAST | 0.125 ± 0.0043
CAL51 BREAST | 0.0247 ± 0.00076
MDAMB436 BREAST | 0.297 ± 0.016
HSSYII SYNOVIAL | 0.0185 ± 0.0022
RDES SOFT TISSUE | 0.087 ± 0.0098
MDAMB157 BREAST | 0.053 ± 0.0027
CHLA90 AUTONOMIC GANGLIA | 0.054 ± 0.0035
CADOES1 SOFT TISSUE | 0.093 ± 0.0087
SG31 HEADNECK | 0.0787 ± 0.02
SCC47 HEADNECK | 0.09 ± 0.0027
S68 BREAST | 0.037 ± 0.0046
SNU475 LIVER | 0.3 ± 0.032

Test System | surviving fraction
22RV1 PROSTATE | 0.024 ± 0.001
SG32 HEADNECK | 0.04 ± 0.017
SCC003 HEADNECK | 0.11 ± 0.025
JURKAT HAEMATOPOIETIC AND LYMPHOID TISSUE | 0.027
HT1080 SOFT TISSUE | 0.0267 ± 0.00058
CAL120 BREAST | 0.0702 ± 0.0011
MCF7 BREAST | 0.0898 ± 0.0037
MFM223 BREAST | 0.079 ± 0.0053
LNCAP PROSTATE | 0.024 ± 0.0017
PCI30 HEADNECK | 0.079 ± 0.023
OSHN BONE | 0.0707 ± 0.0021
SG28 HEADNECK | 0.0457 ± 0.0098
HOS BONE | 0.024
HUO3N1 BONE | 0.08133 ± 0.00058
BT20 BREAST | 0.042 ± 0.01
SJSA1 BONE | 0.0957 ± 0.005
JIMT1 BREAST | 0.225 ± 0.012
HCC78 LUNG | 0.0317 ± 0.0015
NY BONE | 0.0617 ± 0.004
NOS1 BONE | 0.106 ± 0.013

Same assay, conditions: 1000 nM; exposure time: 5 days

Test System | surviving fraction
SCC36 HEADNECK | 0.034 ± 0.002
OS25HAL BONE | 0.038 ± 0.003
HCC1806 BREAST | 0.0257 ± 0.0011
HU09 BONE | 0.0247 ± 0.0021
SG43 HEADNECK | 0.048 ± 0.024
U2OS BONE | 0.0373 ± 0.0021
HOSMNG BONE | 0.153 ± 0.037
CASKI CERVIX | 0.0253 ± 0.0015
SUM44 BREAST | 0.054 ± 0.0027
MDAMB231 BREAST | 0.0638 ± 0.0041
CAL51 BREAST | 0.0238 ± 0.0015
MDAMB436 BREAST | 0.269 ± 0.031
HSSYII SYNOVIAL | 0.0217 ± 0.0019
RDES SOFT TISSUE | 0.0413 ± 0.0031
MDAMB157 BREAST | 0.0307 ± 0.0046
CHLA90 AUTONOMIC GANGLIA | 0.0323 ± 0.0021
CADOES1 SOFT TISSUE | 0.0643 ± 0.011
SG31 HEADNECK | 0.0363 ± 0.01
SCC47 HEADNECK | 0.0307 ± 0.0015
S68 BREAST | 0.0317 ± 0.0011
SNU475 LIVER | 0.192 ± 0.012

Test System | surviving fraction
22RV1 PROSTATE | 0.0357 ± 0.0025
SG32 HEADNECK | 0.0313 ± 0.0081
SCC003 HEADNECK | 0.0417 ± 0.0086
JURKAT HAEMATOPOIETIC AND LYMPHOID TISSUE | 0.0297 ± 0.00058
HT1080 SOFT TISSUE | 0.0437 ± 0.0045
CAL120 BREAST | 0.0468 ± 0.0028
MCF7 BREAST | 0.0774 ± 0.008
MFM223 BREAST | 0.052 ± 0.007
LNCAP PROSTATE | 0.0247 ± 0.0011
PCI30 HEADNECK | 0.03 ± 0.0027
OSHN BONE | 0.0503 ± 0.00058
SG28 HEADNECK | 0.038 ± 0.0036
HOS BONE | 0.0283 ± 0.0015
HUO3N1 BONE | 0.0547 ± 0.00058
BT20 BREAST | 0.037 ± 0.0056
SJSA1 BONE | 0.0317 ± 0.0021
JIMT1 BREAST | 0.087 ± 0.019
HCC78 LUNG | 0.0217 ± 0.0042
NY BONE | 0.0443 ± 0.0057
NOS1 BONE | 0.0487 ± 0.0068
